Measurements taken from PMC11350868, “A Novel Bacitracin-like Peptide from Mangrove-Isolated Bacillus paralicheniformis NNS4-3 against MRSA and Its Genomic Insights” (Antibiotics, 2024).
In brackets after ≈: the same amount, converted by molar mass. Several values for one entry are separate records, joined by “and”; a condition that tells them apart may be missing. Equal entries are not always repeated. Where two headings read alike, the source gives them in different places.

Legend:
MRSA strain 142 = test: microbe, parasite or virus in culture; type: cell-based, Staphylococcus aureus; details: strain 142, 24 h
Procedure: (§1) The MIC and MBC of the purified peptide of NNS4-3 were determined against various strains of S. aureus. The broth microdilution method followed the guidance provided by the Clinical and Laboratory Standards Institute (CLSI). Pathogenic bacteria, such as S. aureus TISTR 517 and MRSA strains 142, 1096, and 2468, were used as test strains and cultured on MH agar at 37 °C for 18 h. A single colony of each tested bacterium was suspended in 0.85% NaCl until its turbidity reached an OD of 0.1 at 625 nm (1 × 10^8 CFU/mL). The bacterial cells were diluted to 5 × 10^6 CFU/mL using cation-adjusted Mueller Hinton broth (CAMHB). The diluted cell suspension (10 µL) was transferred to each well of a 96-well plate. With a total volume of 100 µL in each well, the purified AMP was added to each well to obtain final concentrations between 0.125 and 64 µg/mL. Standard antibiotics (vancomycin and cefoxitin) and antibiotic-free samples were used as positive and negative controls, respectively. The 96-well plate was incubated at 37 °C for 24 h. The experiment was carried out in triplicate for each strain. […] Subsequently, 100 µL of each dilution was spread on MH agar and then incubated at 37 °C for 24 h. The MBC was identified as the lowest concentration at which no bacterial colony growth was observed on the plate.

MRSA strain 2468 [1] = test: microbe, parasite or virus in culture; type: cell-based, Staphylococcus aureus; details: strain 2468, 24 h
Procedure: as §1

S. aureus TISTR 517 [2] = test: microbe, parasite or virus in culture; type: cell-based, Staphylococcus aureus; details: TISTR 517, 24 h
Procedure: as §1

MRSA strain 1096 = test: microbe, parasite or virus in culture; type: cell-based, Staphylococcus aureus; details: strain 1096, 24 h
Procedure: as §1

[3] = Thermal stability (residual antibacterial activity); type: physicochemical; details: AMP 10 µg/mL in purified water, agar well diffusion vs MRSA strain 2468, relative to non-treated sample, mean ± SD, triplicate
Procedure: (§3) The AMP was dissolved in sterile purified water and adjusted to a final concentration of 10 µg/mL. The sensitivity of the AMP to temperatures of 60, 80, and 100 °C as well as autoclaving at 121 °C for 15 and 30 min was evaluated. The sensitivity of the AMP to proteolytic enzymes with different digesting characteristics was studied by incubating with a concentration of 1 mg/mL of proteinase K, trypsin, and α-chymotrypsin (Sigma-Aldrich, Warren, MI, USA). Surfactant compatibility of the AMP was examined by exposing the sample to 1% SDS and 1% Triton X-100 (AppliChem GmbH, Darmstadt, Germany). The propensity of the AMP for acid and base hydrolysis was examined by adjusting the pH of the solution to 1.2, 4.5, 6.8, and 7.4. After incubation, the pH of the AMP solution was neutralized to 7.4 before being assessed for antimicrobial activity. Following all treatments, the antibacterial assay using agar well diffusion against the MRSA strain 2468 was conducted in triplicate. The stability profiles are presented as the percentage of the activity relative to the untreated conditions (mean ± SD) and statistical significance was determined by the Student’s t-test at a p-value < 0.05.

MRSA strain 2468 [4] = test: SEM of treated cells (morphological changes); type: cell-based, Staphylococcus aureus; details: 1× MIC, 18 h incubation, 20,000× magnification
Procedure: (§2) The treatment effect of NNS4-3 AMP on tested bacterial cells was investigated by observing morphological changes under SEM. S. aureus TISTR 517 and MRSA strain 2468 were precultured in MH broth for 18 h before being centrifuged to harvest the cell pellet. Cell pellets of both strains were washed with 0.85% sterile NaCl solution 3 times to remove exopolysaccharide. The washed cells were then dispersed in CAMHB to adjust cell turbidity to 0.1 OD at 625 nm. The prepared cells were diluted to 5 × 10^5 CFU/mL with CAMHB before being treated with NNS4-3 AMP. […] The sample for SEM micrography was prepared by fixing the bacterial sample in 2.5% glutaraldehyde in 0.1 M phosphate buffer pH 7.2 for 24 h before ethanol dehydration of the sample. The complete ethanol removal from the prepared sample was conducted by a critical point drying machine (Quorum Technologies Ltd., Lewes, East Sussex, UK).

S. aureus TISTR 517 [5] = test: SEM of treated cells (morphological changes); type: cell-based, Staphylococcus aureus; details: 1× MIC, 18 h incubation, 20,000× magnification
Procedure: as §2

[6] = Surfactant stability (residual antibacterial activity); type: physicochemical; details: AMP 10 µg/mL, agar well diffusion vs MRSA strain 2468, relative to non-treated sample, mean ± SD, triplicate
Procedure: as §3

Proteinase K = target: T1, Proteinase K (Parengyodontium album, UniProt P06873); test: Proteolytic enzyme stability (residual antibacterial activity); type: in vitro ADME; details: Proteinase K 1 mg/mL, AMP 10 µg/mL, agar well diffusion vs MRSA strain 2468, relative to non-treated sample, mean ± SD, triplicate
T1 construct: purchased Sigma-Aldrich
T1 sequence (P06873 106-384): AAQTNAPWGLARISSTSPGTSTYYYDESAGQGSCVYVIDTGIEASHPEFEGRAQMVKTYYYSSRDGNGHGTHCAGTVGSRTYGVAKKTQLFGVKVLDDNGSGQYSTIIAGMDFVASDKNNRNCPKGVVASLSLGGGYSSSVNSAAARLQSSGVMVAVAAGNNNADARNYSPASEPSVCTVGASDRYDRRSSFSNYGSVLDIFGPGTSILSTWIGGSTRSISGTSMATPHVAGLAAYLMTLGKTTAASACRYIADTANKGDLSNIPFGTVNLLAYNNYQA
Procedure: as §3

MRSA strain 2468 [7] = test: Time-kill kinetics; type: cell-based, Staphylococcus aureus; details: 4× MIC; CAMHB, 37 °C
Procedure: S. aureus TISTR 517 and MRSA strain 2468 were adjusted to a cell density of 5 × 10^5 CFU/mL with CAMHB for the initial treatment. […] The reactions were conducted at 37 °C, followed by spreading the total volume onto MH agar at specific time intervals (0–24 h). Subsequently, the spread plates were incubated at 37 °C for 24 h before counting the colonies. The bacterial reduction trends were presented with a log10 scale of viable cells (logCFU/mL) versus treatment duration. The bacterial cell reduction was determined within 24 h. Each experiment was conducted in triplicate on the 96-well plates. The presence of significant differences (p-value < 0.05) was assessed by two-way ANOVA, followed by the post hoc Tukey’s test for conducting multiple comparisons between treated and non-treated samples at each time interval.

α-chymotrypsin = α-chymotrypsin (Bos taurus, UniProt P00766); details: α-chymotrypsin 1 mg/mL, AMP 10 µg/mL, agar well diffusion vs MRSA strain 2468, relative to non-treated sample, mean ± SD, triplicate
Procedure: as §3

[8] = Effect of pH on the stability (residual antibacterial activity); type: physicochemical; details: AMP 10 µg/mL, mean ± SD, triplicate
Procedure: as §3

CC(C)CC(NC(=O)C(N)CCCCN)C(=O)NC(CC(C)C)C(=O)NC(CCCCN)C(=O)NC(CC(=O)O)C(=O)NC(CC(C)C)C(=O)NC(Cc1ccccc1)C(=O)NC(Cc1c[nH]cn1)C(=O)NC(CC(=O)O)C(=O)NC(CC(N)=O)C(=O)O (single isomer, unassigned) [NNS4-3 AMP]
MBC (MRSA strain 142): 4 µg/mL (≈ 3.22 µM) | MIC (MRSA strain 142): 1 µg/mL (≈ 0.805 µM) | MBC (MRSA strain 2468 [1]): 4 µg/mL (≈ 3.22 µM) | MIC (MRSA strain 2468 [1]): 1 µg/mL (≈ 0.805 µM) | MBC (S. aureus TISTR 517 [2]): 64 µg/mL (≈ 51.5 µM) | MIC (S. aureus TISTR 517 [2]): 16 µg/mL (≈ 12.9 µM) | MBC (MRSA strain 1096): 4 µg/mL (≈ 3.22 µM) | MIC (MRSA strain 1096): 1 µg/mL (≈ 0.805 µM) | % Residual Activity ([3]; 37 °C, 1 h): 103.19 ± 3.68% | % Residual Activity ([3]; 37 °C, 6 h): 100.00 ± 0.00% | % Residual Activity ([3]; 37 °C, 12 h): 99.61 ± 6.44% | % Residual Activity ([3]; 60 °C, 1 h): 101.82 ± 2.46% | % Residual Activity ([3]; 60 °C, 6 h): 95.27 ± 4.31% | % Residual Activity ([3]; 60 °C, 12 h): 90.47 ± 2.98 % | % Residual Activity ([3]; 80 °C, 1 h): 97.52 ± 6.21% | % Residual Activity ([3]; 80 °C, 6 h): 41.13 ± 35.62 % | % Residual Activity ([3]; 100 °C, 1 h): 73.05 ± 1.57 % | % Residual Activity ([3]; 100 °C, 6 h): 0.00 ± 0.00 % | % Residual Activity ([3]; 100 °C, 12 h): 0.00 ± 0.00 % | % Residual Activity ([3]; autoclaving 121 °C, 15 psi, 15 min): 61% and 61.83 ± 0.74 % | % Residual Activity ([3]; autoclaving 121 °C, 15 psi, 30 min): 0.00 ± 0.00 % | morphological changes under SEM (MRSA strain 2468 [4]): membrane disruption and pore formation | morphological changes under SEM (S. aureus TISTR 517 [5]): cellular lysis | % Residual Activity ([6]; 1% SDS, 1 h): 87.00 ± 6.17 % | % Residual Activity ([6]; 1% SDS, 6 h): 86.69 ± 5.39 % | % Residual Activity ([6]; 1% SDS, 12 h): 86.25 ± 4.76 % | % Residual Activity ([6]; 1% Triton X-100, 1 h): 104.54 ± 4.96% | % Residual Activity ([6]; 1% Triton X-100, 12 h): 103.40 ± 3.82% | % Residual Activity (Proteinase K; 1 h): 98.66 ± 1.68% | % Residual Activity (Proteinase K; 6 h): 99.19 ± 1.07% | % Residual Activity (Proteinase K; 12 h): 99.07 ± 3.08% | time of treatment to complete elimination of viable cells (MRSA strain 2468 [7]): ≤ 8 h | % Residual Activity (α-chymotrypsin; 1 h): 96.65 ± 2.14% | % Residual Activity (α-chymotrypsin; 6 h): 95.15 ± 6.64% | % Residual Activity (α-chymotrypsin; 12 h): 97.06 ± 0.54% | % Residual Activity ([8]; pH 1.2, 1 h, neutralized to pH 7.4 before agar well diffusion vs MRSA strain 2468, relative to non-treated sample): 98.12 ± 2.14% | % Residual Activity ([8]; pH 1.2, 6 h, neutralized to pH 7.4 before agar well diffusion vs MRSA strain 2468, relative to non-treated sample): 95.45 ± 0.79% | % Residual Activity ([8]; pH 1.2, 12 h, neutralized to pH 7.4 before agar well diffusion vs MRSA strain 2468, relative to non-treated sample): 94.14 ± 3.12% | % Residual Activity ([8]; pH 4.5, 1 h, neutralized to pH 7.4 before agar well diffusion vs MRSA strain 2468, relative to non-treated sample): 95.24 ± 3.29% | % Residual Activity ([8]; pH 4.5, 6 h, neutralized to pH 7.4 before agar well diffusion vs MRSA strain 2468, relative to non-treated sample): 99.64 ± 2.87% | % Residual Activity ([8]; pH 4.5, 12 h, neutralized to pH 7.4 before agar well diffusion vs MRSA strain 2468, relative to non-treated sample): 96.91 ± 2.99% | % Residual Activity ([8]; pH 6.8, 1 h, neutralized to pH 7.4 before agar well diffusion vs MRSA strain 2468, relative to non-treated sample): 98.87 ± 2.00% | % Residual Activity ([8]; pH 6.8, 6 h, neutralized to pH 7.4 before agar well diffusion vs MRSA strain 2468, relative to non-treated sample): 95.89 ± 5.00% | % Residual Activity ([8]; pH 6.8, 12 h, neutralized to pH 7.4 before agar well diffusion vs MRSA strain 2468, relative to non-treated sample): 92.54 ± 4.14% | % Residual Activity ([8]; pH 7.4, 1 h, agar well diffusion vs MRSA strain 2468, relative to non-treated sample): 97.80 ± 1.32% | % Residual Activity ([8]; pH 7.4, 6 h, agar well diffusion vs MRSA strain 2468, relative to non-treated sample): 94.82 ± 2.80% | % Residual Activity ([8]; pH 7.4, 12 h, agar well diffusion vs MRSA strain 2468, relative to non-treated sample): 93.29 ± 1.89%
